Data published in PubChem BioAssay AID248 (DTP/NCI, 2004).
Where “and” joins values, the source holds several entries; their conditions need not be identical. Equal values may be shown once. Inconclusive results and toxic doses are left out. Cut-off read from the data, not from the text of the source: active = T/C of 150% or more; inactive = T/C below 125%.

Tested on: L1210 leukemia ip in BDF1 mice, survival T/C
Assay: NCI In Vivo Anticancer Drug Screen. Data for tumor model L1210 Leukemia (intraperitoneal) in B6D2F1 (BDF1) mice
Conditions: endpoint: mean survival time, higher = longer survival
Procedure, shortened: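 Transplantable tumor model; survival measured in treated vs vehicle control mice. Value = treated/control.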

[1] = dose: 75.0 mg/kg/injection, schedule: Q01DX001 (ip), vehicle: saline
[2] = dose: 100.0 mg/kg/injection, schedule: Q01DX009 (ip), vehicle: saline
[3] = dose: 100.0 mg/kg/injection, schedule: Q04DX003 (ip), vehicle: saline
[4] = dose: 150.0 mg/kg/injection, schedule: Q01DX001 (ip), vehicle: saline
[5] = dose: 200.0 mg/kg/injection, schedule: Q04DX003 (ip), vehicle: saline
[6] = dose: 400.0 mg/kg/injection, schedule: Q04DX003 (ip), vehicle: saline
[7] = dose: 200.0 mg/kg/injection, schedule: Q01DX009 (ip), vehicle: saline
[8] = dose: 400.0 mg/kg/injection, schedule: Q01DX009 (ip), vehicle: saline
[9] = dose: 100.0 mg/kg/injection, schedule: Q01DX001 (ip), vehicle: saline
[10] = dose: 200.0 mg/kg/injection, schedule: Q01DX001 (ip), vehicle: saline
[11] = dose: 400.0 mg/kg/injection, schedule: Q01DX001 (ip), vehicle: saline

Measured: T/C

CCN(CC)CCSC(=O)C(O)(c1ccccc1)C1CCCC1 (stereo not drawn)
inactive: dose: 25.0 mg/kg/injection, schedule: Q01DX009 (ip), vehicle: saline 103 % of control | dose: 50.0 mg/kg/injection, schedule: Q01DX009 (ip), vehicle: saline 97 % of control and 108 % of control | [1] 96 % of control | [2] 100 % of control and 88 % of control | [3] 102 % of control | [4] 92 % of control | [5] 100 % of control

Cc1noc(-n2c(C)ccc2C)c1C
inactive: [3] 97 % of control | [5] 100 % of control | [6] 95 % of control

Cc1ccc(N2C(=O)CC(c3ccccc3)C2C(=O)O)cc1 (stereo not drawn)
inactive: dose: 100.0 mg/kg/injection, schedule: Q04DX002 (ip), vehicle: Klucel (hydroxypropylcellulose) (HPC) 100 % of control | dose: 200.0 mg/kg/injection, schedule: Q04DX002 (ip), vehicle: Klucel (hydroxypropylcellulose) (HPC) 103 % of control | dose: 400.0 mg/kg/injection, schedule: Q04DX002 (ip), vehicle: Klucel (hydroxypropylcellulose) (HPC) 103 % of control

COC(=O)C1=C[N+](C)(C)N=C1[O-]
inactive: [2] 97 % of control | [7] 94 % of control | [8] 93 % of control

CN(CCN1CCCCC1)C(=O)C(c1ccccc1)C1CCCCC1 (stereo not drawn)
inactive: [1] 98 % of control

OCC12C=CC(CC1)CC2
inactive: dose: 75.0 mg/kg/injection, schedule: Q04DX002 (ip), vehicle: gum acacia 92 % of control | dose: 150.0 mg/kg/injection, schedule: Q04DX002 (ip), vehicle: gum acacia 100 % of control | dose: 300.0 mg/kg/injection, schedule: Q04DX002 (ip), vehicle: gum acacia 92 % of control

O=C(CCN1CC1)Nc1ccc(Cc2ccc(NC(=O)CCN3CC3)cc2)cc1
inactive: dose: 20.0 mg/kg/injection, schedule: Q04DX003 (ip), vehicle: Klucel (hydroxypropylcellulose) (HPC) 101 % of control | dose: 40.0 mg/kg/injection, schedule: Q04DX003 (ip), vehicle: Klucel (hydroxypropylcellulose) (HPC) 117 % of control | dose: 80.0 mg/kg/injection, schedule: Q04DX003 (ip), vehicle: Klucel (hydroxypropylcellulose) (HPC) 106 % of control

O=C(O)C1C2/C=C/CCCCC21 (stereo not drawn)
inactive: dose: 100.0 mg/kg/injection, schedule: Q04DX002 (ip), vehicle: other 104 % of control | dose: 200.0 mg/kg/injection, schedule: Q04DX002 (ip), vehicle: other 86 % of control | dose: 400.0 mg/kg/injection, schedule: Q04DX002 (ip), vehicle: other 93 % of control

CCCCCCCNC1=C(c2ccccc2)C(=O)C(NCCCCCCC)=C(c2ccccc2)C1=O
inactive: dose: 100.0 mg/kg/injection, schedule: Q01DX001 (ip), vehicle: carboxymethylcellulose (CMC) 94 % of control | dose: 200.0 mg/kg/injection, schedule: Q01DX001 (ip), vehicle: carboxymethylcellulose (CMC) 96 % of control | dose: 400.0 mg/kg/injection, schedule: Q01DX001 (ip), vehicle: carboxymethylcellulose (CMC) 91 % of control

S=c1[nH]c2cc3ccccc3cc2[nH]1
inactive: [1] 98 % of control | [4] 101 % of control | dose: 300.0 mg/kg/injection, schedule: Q01DX001 (ip), vehicle: saline 92 % of control

O=C(N/N=C/c1ccc([N+](=O)[O-])cc1)c1cccc2ccccc12
inactive: [9] 97 % of control | [10] 89 % of control | [11] 89 % of control

CC(=O)C1OC1(C)C (stereo not drawn)
inactive: [9] 108 % of control | [2] 105 % of control | [3] 108 % of control | [10] 103 % of control | [7] 104 % of control | [5] 102 % of control | [11] 104 % of control | [8] 104 % of control | [6] 102 % of control

CC(=O)Oc1cc(Cl)c(Cl)cc1Cl
inactive: [2] 100 % of control | dose: 100.0 mg/kg/injection, schedule: Q04DX002 (ip), vehicle: gum acacia 102 % of control | [7] 100 % of control | dose: 200.0 mg/kg/injection, schedule: Q04DX002 (ip), vehicle: gum acacia 110 % of control | [8] 102 % of control | dose: 400.0 mg/kg/injection, schedule: Q04DX002 (ip), vehicle: gum acacia 94 % of control

C(=C(CC1CCC1)CC1CCC1)C1CCC1
inactive: dose: 100.0 mg/kg/injection, schedule: Q04DX002 (ip), vehicle: saline with Tween-80 96 % of control | dose: 200.0 mg/kg/injection, schedule: Q04DX002 (ip), vehicle: saline with Tween-80 90 % of control

O=C(N1CCOCC1)C1(c2ccccc2)CCNCC1
inactive: [3] 98 % of control | [5] 93 % of control

CC(C)C(N=Cc1cc(Cl)ccc1O)C(=O)O (stereo not drawn)
inactive: dose: 100.0 mg/kg/injection, schedule: Q01DX001 (ip), vehicle: steriod suspending solution 105 % of control | dose: 200.0 mg/kg/injection, schedule: Q01DX001 (ip), vehicle: steriod suspending solution 94 % of control | dose: 400.0 mg/kg/injection, schedule: Q01DX001 (ip), vehicle: steriod suspending solution 104 % of control

O=C1C2CCCCC2C(=O)N1C1=NC=NC2=NC=NC21 (stereo not drawn)
inactive: dose: 100.0 mg/kg/injection, schedule: Q04DX003 (ip), vehicle: saline with Tween-80 98 % of control | dose: 200.0 mg/kg/injection, schedule: Q04DX003 (ip), vehicle: saline with Tween-80 101 % of control | dose: 400.0 mg/kg/injection, schedule: Q04DX003 (ip), vehicle: saline with Tween-80 95 % of control

c1ccc(-c2cc(-c3ccccc3)cc(-c3ccccc3)c2)cc1
inactive: dose: 1.56 mg/kg/injection, schedule: Q01DX009 (ip), vehicle: saline 98 % of control | dose: 3.12 mg/kg/injection, schedule: Q01DX009 (ip), vehicle: saline 95 % of control | dose: 6.25 mg/kg/injection, schedule: Q01DX009 (ip), vehicle: saline 93 % of control
